Reference: ChEMBL document CHEMBL6134830, “Naturally inspired chimeric quinolone derivatives to reverse bacterial drug resistance” (Eur J Med Chem, 2025)
Converted amounts (≈) assume the structure as drawn. The source made the active and inactive calls. The calls are words filed in the database; no cut-off is given here. Numbered stars: 1 amine (or outer) side, 2 acyl side, 3 side chain; on linkers, the order of the positions; unused ones are H or OH. Bridge positions count the residues as written; N and C are the ends. Square brackets hold non-standard residues; d marks the D form. Peptide text beside a SMILES is read from it. * marks the point of attachment. X1 = O=C(O)c1cn(C2CC2)c2cc(N3CCN(*)CC3)c(F)cc2c1=O; NH(CH2)11CH3 = CCCCCCCCCCCCN*; Suc = O=C(CCC(=O)[*:2])[*:1]; X2 = CC[C@H](C)CCCCC(=O)*; dDab = NCC[C@@H](N)C(=O)O; Dab = NCC[C@H](N)C(=O)O

Key:
L929 [1] = experiment: Cytotoxicity against mouse L929 cells assessed as reduction in cell viability at 100 microg/mL incubated for 24 hrs by MTT assay; type: toxicity, cell-based; details: l929, 24 h, dose 100 µg/ml
Staphylococcus aureus [2] = experiment: Antimicrobial activity against Methicillin-resistant Staphylococcus aureus assessed as reduction in bacterial growth at 4 times MIC measured for 0.5 to 24 hrs by time-kill kinetics assay; type: functional, organism-based; details: time 0.5-24 hrs
Cell membrane [3] = experiment: Disruption of cell membrane in methicillin-resistant Staphylococcus aureus assessed as PI-positive bacteria at 8 times MIC measured after 30 mins by PI staining based flow cytometry analysis (reference value: 7.49 %); type: subcellular
Cell membrane [4] = experiment: Disruption of cell membrane in methicillin-resistant Staphylococcus aureus at 4 times MIC measured after 4 hrs by scanning electron microscopic analysis; type: subcellular
Staphylococcus aureus [5] = experiment: Antibacterial activity against methicillin-resistant Staphylococcus aureus infected in ICR mouse model of subcutaneous abscess assessed as effect on skin abscesses at 25 mg/kg, sc measured at 48 hrs post-injection; type: functional, organism-based
Staphylococcus aureus [6] = experiment: Antibacterial activity against methicillin-resistant Staphylococcus aureus infected in ICR mouse model of subcutaneous abscess assessed as reduction in infiltration of inflammatory cells at 25 mg/kg, sc measured at 48 hrs post-injection by H and E/Masson staining based analysis; type: functional, organism-based
Mus musculus [7] = experiment: Anti-inflammatory activity against subcutaneous abscess ICR mouse model infected with methicillin-resistant Staphylococcus aureus assessed as reduction in TNF-alpha level at 25 mg/kg, sc measured at 48 hrs post-injection by ELISA method; type: functional, organism-based
Staphylococcus aureus [8] = experiment: Antimicrobial activity against Staphylococcus aureus ATCC 25923 assessed as inhibition of bacterial growth measured after 20 hrs by CLSI protocol based Muller Hinton broth assay; type: functional
Enterococcus gallinarum = experiment: Antimicrobial activity against Enterococcus gallinarum ATCC 49573 assessed as inhibition of bacterial growth measured after 20 hrs by CLSI protocol based Muller Hinton broth assay; type: functional
Staphylococcus aureus [9] = experiment: Antimicrobial activity against Methicillin-resistant Staphylococcus aureus ATCC 43300 assessed as inhibition of bacterial growth measured after 20 hrs by CLSI protocol based Muller Hinton broth assay; type: functional
Enterococcus faecalis = experiment: Antimicrobial activity against Enterococcus faecalis ATCC 19433 assessed as inhibition of bacterial growth measured after 20 hrs by CLSI protocol based Muller Hinton broth assay; type: functional
Escherichia coli [10] = experiment: Antimicrobial activity against Escherichia coli ATCC 25922 assessed as inhibition of bacterial growth measured after 20 hrs by CLSI protocol based Muller Hinton broth assay; type: functional
Pseudomonas aeruginosa = experiment: Antimicrobial activity against Pseudomonas aeruginosa ATCC 27853 assessed as inhibition of bacterial growth measured after 20 hrs by CLSI protocol based Muller Hinton broth assay; type: functional
Acinetobacter baumannii = experiment: Antimicrobial activity against Acinetobacter baumannii ATCC 19606 assessed as inhibition of bacterial growth measured after 20 hrs by CLSI protocol based Muller Hinton broth assay; type: functional
[11] = Hemolytic activity in Sprague-Dawley rat Red blood cells at 100 ug/ml incubated for 1 hrs by absorbance based analysis; type: toxicity, cell-based; details: erythrocyte, dose 100 µg/ml
L929 [12] = experiment: Cytotoxicity against mouse L929 cells assessed as reduction in cell viability at 25 microg/mL incubated for 24 hrs by MTT assay; type: toxicity, cell-based; details: l929, 24 h, dose 25 µg/ml
[13] = Hemolytic activity in Sprague-Dawley rat Red blood cells at 200 ug/ml incubated for 1 hr by absorbance based analysis; type: toxicity, cell-based; details: erythrocyte, dose 200 µg/ml
Staphylococcus aureus [14] = experiment: Antimicrobial activity against Methicillin-resistant Staphylococcus aureus assessed as reduction in bacterial load at 4 times MIC measured after 4 hrs by time-kill kinetics assay; type: functional
Staphylococcus aureus [15] = experiment: Antimicrobial activity against Methicillin-resistant Staphylococcus aureus assessed as reduction in bacterial growth at 4 times MIC measured after 8 hrs by time-kill kinetics assay relative to control; type: functional; design: scale not given: the % may be the effect or the level left
Staphylococcus aureus [16] = experiment: Antimicrobial activity against Methicillin-resistant Staphylococcus aureus ATCC 33591 measured after 5 to 25 passages at sub-MIC incubated for 12 hrs; type: functional, organism-based
Escherichia coli [17] = experiment: Antimicrobial activity against Escherichia coli ATCC 25922 measured after 5 to 25 passages at sub-MIC incubated for 12 hrs; type: functional, organism-based
Cell membrane [18] = experiment: Disruption of cell membrane in methicillin-resistant Staphylococcus aureus assessed as PI-positive bacteria at 2 times MIC measured after 30 mins by PI staining based flow cytometry analysis (reference value: 7.49 %); type: subcellular
Cell membrane [19] = experiment: Disruption of cell membrane in methicillin-resistant Staphylococcus aureus assessed as PI-positive bacteria at 4 times MIC measured after 30 mins by PI staining based flow cytometry analysis (reference value: 7.49 %); type: subcellular
Cell membrane [20] = experiment: Disruption of cell membrane in methicillin-resistant Staphylococcus aureus at 8 times MIC measured after 4 hrs by scanning electron microscopic analysis; type: subcellular
Staphylococcus aureus [21] = experiment: Antibacterial activity against methicillin-resistant Staphylococcus aureus infected in ICR mouse model of subcutaneous abscess assessed as effect on lesions at 25 mg/kg, sc measured at 48 hrs post-injection; type: functional, organism-based
Mus musculus [22] = experiment: Anti-inflammatory activity against subcutaneous abscess ICR mouse model infected with methicillin-resistant Staphylococcus aureus assessed as reduction in IL-6 level at 25 mg/kg, sc measured at 48 hrs post-injection by ELISA method; type: functional, organism-based
Staphylococcus aureus [23] = experiment: Antibacterial activity against methicillin-resistant Staphylococcus aureus infected in ICR mouse model of subcutaneous abscess assessed as reduction in IL-6 level at 25 mg/kg, sc measured at 48 hrs post-injection by ELISA method; type: functional, organism-based
Staphylococcus aureus [24] = experiment: Antibacterial activity against methicillin-resistant Staphylococcus aureus infected in ICR mouse model of subcutaneous abscess assessed as bacterial elimation at 25 mg/kg, sc measured at 48 hrs post-injection relative to control; type: functional
Staphylococcus aureus [25] = experiment: Antibacterial activity against methicillin-resistant Staphylococcus aureus infected in ICR mouse model of subcutaneous abscess assessed as bacterial load at 25 mg/kg, sc measured at 48 hrs post-injection; type: functional
[26] = Toxicity in ICR mouse assessed as compatible skin at 25 mg/kg, sc administered as single dose and measured at 2 hrs post-infection by H and E staining based analysis; type: organism-based; details: in vivo
[27] = Toxicity in ICR mouse assessed as pathological change in skin at 25 mg/kg, sc administered as single dose and measured at 2 hrs post-infection by H and E staining based analysis; type: organism-based; details: in vivo
[28] = Toxicity in ICR mouse assessed as pathological change in heart at 25 mg/kg, sc administered as single dose and measured at 2 hrs post-infection by H and E staining based analysis; type: organism-based; details: in vivo
[29] = Toxicity in ICR mouse assessed as pathological change in liver at 25 mg/kg, sc administered as single dose and measured at 2 hrs post-infection by H and E staining based analysis; type: organism-based; details: in vivo
[30] = Toxicity in ICR mouse assessed as pathological change in spleen at 25 mg/kg, sc administered as single dose and measured at 2 hrs post-infection by H and E staining based analysis; type: organism-based; details: in vivo
[31] = Toxicity in ICR mouse assessed as pathological change in lung at 25 mg/kg, sc administered as single dose and measured at 2 hrs post-infection by H and E staining based analysis; type: organism-based; details: in vivo
[32] = Toxicity in ICR mouse assessed as pathological change in kidney at 25 mg/kg, sc administered as single dose and measured at 2 hrs post-infection by H and E staining based analysis; type: organism-based; details: in vivo

Row | Structure (SMILES) | Activity (L929 [1]) | Activity (Cell membrane [3]) | Activity (Cell membrane [4]) | Activity (Staphylococcus aureus [6]) | Activity (Mus musculus [7]) | MIC (Staphylococcus aureus [8]) | MIC (Enterococcus gallinarum) | MIC (Staphylococcus aureus [9]) | MIC (Enterococcus faecalis) | MIC (Escherichia coli [10]) | MIC (Pseudomonas aeruginosa) | MIC (Acinetobacter baumannii) | Activity [11] | Activity (L929 [12]) | Activity [13] | other results
1 | O=C(O)c1cn(C2CC2)c2cc(N3CCNCC3)c(F)cc2c1=O [CIPROFLOXACIN] | Non-toxic | 9.46% | inactive | Active; Partial Reduction In Inflammation | Active |  |  |  |  |  |  |  |  |  |  | Activity (Staphylococcus aureus [2]): inactive; Activity (Staphylococcus aureus [5]): inactive
2 | CCCCCCCCCCCCNC(=O)[C@H](CCCCN)NC(=O)[C@H](CCCCN)NC(=O)[C@H](CCCCN)NC(=O)[C@H](CO)NC(=O)CCC(=O)N1CCN(c2cc3c(cc2F)c(=O)c(C(=O)O)cn3C2CC2)CC1 ({X1-Suc}-SKKK-{NH(CH2)11CH3}) |  |  |  |  |  | 6.25 µg/mL (≈ 5.84 µM) | 25 µg/mL (≈ 23.4 µM) | 12.5 µg/mL (≈ 11.7 µM) | 25 µg/mL (≈ 23.4 µM) | 25 µg/mL (≈ 23.4 µM) | 50 µg/mL (≈ 46.7 µM) | 12.5 µg/mL (≈ 11.7 µM) | Toxic | Toxic |  | 
3 | CCCCCCCCCNC(=O)[C@H](CCCCN)NC(=O)[C@H](CCCNC(=N)N)NC(=O)[C@H](CCCCN)NC(=O)c1ccc(C(=O)N2CCN(c3cc4c(cc3F)c(=O)c(C(=O)O)cn4C3CC3)CC2)cc1 | Non-toxic | 58.4% | Active | Active | Active | 1.56 µg/mL (≈ 1.53 µM) | 12.5 µg/mL (≈ 12.3 µM) | 6.25 µg/mL (≈ 6.14 µM) | 12.5 µg/mL (≈ 12.3 µM) | 3.12 µg/mL (≈ 3.07 µM) | 3.12 µg/mL (≈ 3.07 µM) | 6.25 µg/mL (≈ 6.14 µM) |  |  | Non-toxic | Activity (Staphylococcus aureus [14]): 3.6 log10CFU/ml; Activity (Staphylococcus aureus [15]): 100%; Activity (Staphylococcus aureus [16]): Active; Activity (Escherichia coli [17]): Active; Activity (Cell membrane [18]): 12%; Activity (Cell membrane [19]): 26.8%; Activity (Cell membrane [20]): Active; Activity (Staphylococcus aureus [21]): Active; Activity (Mus musculus [22]): Active; Activity (Staphylococcus aureus [23]): Active; Activity (Staphylococcus aureus [24]): 99.99%; Activity (Staphylococcus aureus [25]): 4.4 log10CFU/ml; Activity [26]: Non-toxic; Activity [27]: Non-toxic; Activity [28]: Non-toxic; Activity [29]: Non-toxic; Activity [30]: Non-toxic; Activity [31]: Non-toxic; Activity [32]: Non-toxic
4 | CCCCCCCCCCCCNC(=O)[C@H](CCCCN)NC(=O)[C@H](CCCCN)NC(=O)[C@H](CCCCN)NC(=O)CCCCCCCCCCCNC(=O)CCC(=O)N1CCN(c2cc3c(cc2F)c(=O)c(C(=O)O)cn3C2CC2)CC1 |  |  |  |  |  | 3.12 µg/mL (≈ 2.65 µM) | 6.25 µg/mL (≈ 5.29 µM) | 6.25 µg/mL (≈ 5.29 µM) | 12.5 µg/mL (≈ 10.6 µM) | 12.5 µg/mL (≈ 10.6 µM) | 6.25 µg/mL (≈ 5.29 µM) | 6.25 µg/mL (≈ 5.29 µM) | Toxic | Toxic |  | 
5 | CC(C)CCCCC(=O)N[C@@H](CCN)C(=O)N[C@H](C(=O)N[C@@H](CCN)C(=O)N[C@H]1CCNC(=O)[C@H]([C@@H](C)O)NC(=O)[C@H](CCN)NC(=O)[C@H](CCN)NC(=O)[C@H](CC(C)C)NC(=O)[C@@H](Cc2ccccc2)NC(=O)[C@@H](CCN)NC1=O)[C@@H](C)O.CC[C@H](C)CCCCC(=O)N[C@@H](CCN)C(=O)N[C@H](C(=O)N[C@@H](CCN)C(=O)N[C@H]1CCNC(=O)[C@H]([C@@H](C)O)NC(=O)[C@H](CCN)NC(=O)[C@H](CCN)NC(=O)[C@H](CC(C)C)NC(=O)[C@@H](Cc2ccccc2)NC(=O)[C@@H](CCN)NC1=O)[C@@H](C)O (X2-[Dab]T[Dab][Dab][dDab][dF]L[Dab][Dab]T; lactam 4-C) |  | 57.2% |  |  |  |  |  |  |  |  |  |  |  |  |  | 
6 | NCCCC[C@H](NC(=O)c1ccc(C(=O)N2CCN(c3cc4c(cc3F)c(=O)c(C(=O)O)cn4C3CC3)CC2)cc1)C(=O)N[C@@H](CCCCN)C(=O)N[C@@H](CCCCN)C(=O)NCc1ccc(-c2ccccc2)cc1 |  |  |  |  |  | 1.56 µg/mL (≈ 1.52 µM) | 50 µg/mL (≈ 48.6 µM) | 6.25 µg/mL (≈ 6.07 µM) | 50 µg/mL (≈ 48.6 µM) | 25 µg/mL (≈ 24.3 µM) | 25 µg/mL (≈ 24.3 µM) | 25 µg/mL (≈ 24.3 µM) |  |  | Non-toxic | 
